Data on seven compounds can be found in patent publication US12060347B2 (BRISTOL-MYERS SQUIBB COMPANY, priority 2016, dated 2024).

pIC50: −log10 of the molar value.

A word on the pIC50: it is the negative decadic logarithm of the IC50, by convention in mol/L.

In one series the target is T1, PAR1 (Homo sapiens, UniProt P25116).
T1 sequence (P25116 22-425): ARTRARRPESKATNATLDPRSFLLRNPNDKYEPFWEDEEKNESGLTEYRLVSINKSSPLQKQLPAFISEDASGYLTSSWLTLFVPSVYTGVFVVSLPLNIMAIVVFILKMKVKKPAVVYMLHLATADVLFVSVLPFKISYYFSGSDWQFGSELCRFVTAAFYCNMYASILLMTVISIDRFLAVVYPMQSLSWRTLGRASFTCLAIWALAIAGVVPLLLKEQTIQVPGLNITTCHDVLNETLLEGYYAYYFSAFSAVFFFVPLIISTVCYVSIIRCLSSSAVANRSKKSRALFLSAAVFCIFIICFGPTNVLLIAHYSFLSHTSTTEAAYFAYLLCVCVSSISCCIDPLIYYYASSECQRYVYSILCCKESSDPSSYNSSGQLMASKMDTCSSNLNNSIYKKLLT
Conditions: ACS patients, TRACER phase III trial; cited from earlier work.

Series [1] has as its target T2, protease-activated receptor type 4 (PAR4) (Homo sapiens, UniProt Q96RI0).
T2 sequence (Q96RI0 18-385): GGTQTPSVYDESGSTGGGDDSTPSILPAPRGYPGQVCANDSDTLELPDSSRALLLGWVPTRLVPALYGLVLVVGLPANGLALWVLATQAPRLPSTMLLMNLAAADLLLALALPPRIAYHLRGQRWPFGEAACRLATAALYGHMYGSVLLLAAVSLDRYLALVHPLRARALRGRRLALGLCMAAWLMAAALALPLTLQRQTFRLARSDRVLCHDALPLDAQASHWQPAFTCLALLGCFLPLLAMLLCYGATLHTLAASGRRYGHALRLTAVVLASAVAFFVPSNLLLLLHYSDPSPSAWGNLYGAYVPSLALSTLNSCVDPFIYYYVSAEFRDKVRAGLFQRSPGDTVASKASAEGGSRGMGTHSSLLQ
Conditions: abstract of Lee et al. 2001; cited from earlier work.

The next series addresses T3, human PAR4 (Homo sapiens, UniProt Q96RI0).
T3 construct: expressed in transfected cells; host or cells: HEK293 PAR4 Clone 1.2A (BMS Arctic ID 383940)
T3 sequence (Q96RI0 18-385): T2 sequence (Q96RI0 18-385)
Briefly: PAR4 FLIPR assay: antagonism of agonist-peptide-induced calcium mobilization in PAR4-expressing HEK293 cells. Format: cell-based. Particulars: H-Ala-Phe(4-F)-[…]NH2-induced intracellular calcium mobilization, 11-point curves.

Consider `CCOC(=O)N[C@@H]1CC[C@@H]2[C@@H](C1)C[C@H]1C(=O)O[C@H](C)[C@H]1[C@H]2/C=C/c1ccc(-c2cccc(F)c2)cn1` [vorapaxar], for which, on PAR1, the cardiovascular events result is “did not significantly reduce” and the “risk of major bleeding” value was “significantly increased”.

Take `CCOC(=O)c1ccc(-c2nn(Cc3ccccc3)c3ccccc23)cc1` [YD-3, ethyl 4-(1-benzyl-1H-indazol-3-yl)benzoate]: the “inhibition of PAR4-dependent platelet activation” value in series [1] was “selective and potent inhibitor”.

In the case of `[2H]C(O)(c1cc(OC)cc2sc(-c3cc(C)cc4nc(COC)cnc34)nc12)C(C)(C)C` (single isomer, unassigned) [Example 169, 1-(6-methoxy-2-(2-(methoxymethyl)-7-methylquinoxalin-5-yl)benzo[d]thiazol-4-yl)-2,2-dimethylpropan-1-ol-1-d1], the pIC50 at human PAR4 is 9.40.

As for `COc1cnc2c(-c3nc4cc(F)c(O[C@@H](C)[C@@H](C)OC(=O)Nc5cnc(C)nc5)cc4s3)cc(C#N)cc2c1` [Example 655, (2R,3S)-3-((2-(6-cyano-3-methoxyquinolin-8-yl)-5-fluorobenzo[d]thiazol-6-yl)oxy)butan-2-yl (2-methylpyrimidin-5-yl)carbamate], the pIC50 on human PAR4 was 8.96.

In the case of `COc1cnc2c(-c3nc4c(Cl)c(F)c(OCCOC(=O)NCc5cn(C)cn5)cc4s3)cc(C)cc2n1` [Example 397, 2-((4-chloro-5-fluoro-2-(2-methoxy-7-methylquinoxalin-5-yl)benzo[d]thiazol-6-yl)oxy)ethyl ((1-methyl-1H-imidazol-4-yl)methyl)carbamate], at human PAR4, the pIC50 was 6.68.

On to `COc1cnc2c(-c3cc4cccc(Cl)c4o3)cc(C)cc2n1` [Example 37, 5-(7-chlorobenzofuran-2-yl)-2-methoxy-7-methylquinoxaline], for which, on human PAR4, the pIC50 was 7.66.

`Cc1cc(-c2nc3ccccc3o2)c2ncc(OC(F)F)nc2c1` [Example 3, 2-(2-(difluoromethoxy)-7-methylquinoxalin-5-yl)benzo[d]oxazole]: at human PAR4, the negative-log IC50 (pIC50) is 6.62.
